Laboratory results reported in patent US20240262806A1, “INHIBITORS OF NLRP3” (PTC THERAPEUTICS, INC., priority 2021, published 2024).

Tested on: NLRP3 inflammasome
Test: IL-1β Secretion Assay (NLRP3-dependent IL-1β secretion in PMA-differentiated THP-1 cells, nigericin activation, HTRF)
Assay type: cell-based
Conditions: Homo sapiens, THP-1, THP-1 cells, 100 ng/mL PMA 24 h, compound 20 h, 2.5 μM Nigericin 3 h; read-out: IC50 IL-1β Inhibition
Method: Cells were washed 1× with 100 ul PBS and replaced with fresh RPMI+5% FBS. Compounds were serial diluted in DMSO with 3 fold dilution for a total of 7 concentrations.
Compounds, once produced and prepared according to the present invention, can be assessed in variety of assays to characterize their activities. […] IC50 values of IL1β inhibition were calculated from the plot of percentage of inhibition versus the inhibitor concentration by a logistics fit. TABLE I depict examples of compounds according to generic Formulae I. Data which is <1 nM is listed as *****; data 1-10 nM is listed as ****; data 10-100 nM is listed as ***, data 100-300 nM is listed as **, data >300 nM is listed as *.

| SMILES | IC50 |
| --- | --- |
| CN1CCC[C@@H](Nc2nnc(-c3c(F)cc(Cl)cc3F)c3ccncc23)C1 [Compound I-221] | 1 to 10 nM |
| Cc1ccc(-c2nnc(N[C@@H]3CCCN(C)C3)c3c2CCC3)c(OC(F)F)c1 [Compound I-244] | 10 to 100 nM |
| CN1CCC[C@@H](Nc2nnc(-c3ccc(Cl)cc3O)c3cccn23)C1 [Compound I-355] | < 1 nM |
| OCCN1CCC[C@@H](Nc2nnc(-c3c(O)cccc3F)c3ccncc23)C1 [Compound I-285, 3-Fluoro-2-[4-[[(3R)-1-(2-hydroxyethyl)-3-piperidyl]amino]pyrido[3,4-d]pyridazin-1-yl]phenol] | 1 to 10 nM |
| Cc1ccc(-c2nnc(N[C@@H]3CCCN(C)C3)c3cnccc23)c(C)c1 [Compound I-216] | 1 to 10 nM |
| Cc1ccc(-c2nnc(N[C@@H]3CCCN(C)C3)c3ccccc23)c(O)c1 [Compound I-25] | < 1 nM |
| Oc1cc(C(F)(F)F)ccc1-c1nnc(N[C@@H]2CCCOC2)c2cnccc12 [Compound I-309] | 1 to 10 nM |
| COc1cc(C(F)(F)F)ccc1-c1nnc(N2CCNCC2)c2ccncc12 [Compound I-153] | 10 to 100 nM |
| CCOC(=O)CN1CCC[C@@H](Nc2nnc(-c3ccc(C(F)(F)F)cc3O)c3ccccc23)C1 [Compound I-65, Ethyl (R)-2-(3-((4-(2-hydroxy-4-(trifluoromethyl)phenyl)phthalazin-1-yl)amino)piperidin-1-yl)acetate] | < 1 nM |
| CN1CCC[C@@H](Nc2nnc(-c3ccc(C(F)(F)F)cc3O)c3cnnn23)C1 [Compound I-461, (R)-2-(7-((1-Methylpiperidin-3-yl)amino)-[1,2,3]triazolo[1,5-d][1,2,4]triazin-4-yl)-5-(trifluoromethyl)phenol] | 1 to 10 nM |
| CN1C[C@H](F)C[C@@H](Nc2nnc(-c3ccc(OC(F)F)cc3OC(F)F)c3cccn23)C1 [Compound I-615] | 10 to 100 nM |
| CN1CCC[C@H]1CNc1nnc(-c2ccc(C(F)(F)F)cc2O)c2ccncc12 [Compound I-112] | < 1 nM |
| [2H]C1(N2CCC[C@@H](Nc3nnc(-c4ccc(C(F)(F)F)cc4O)c4ccncc34)C2)CCC1 [Compound I-300] | < 1 nM |
| C[C@]1(O)C[C@@H](Nc2nnc(-c3ccc(C(F)(F)F)cc3OC(F)F)c3cccn23)C1 [Compound I-537] | 1 to 10 nM |
| Cc1cc(F)c(-c2nnc(N[C@@H]3CCCN(CCO)C3)n3cccc23)c(OC(F)F)c1 [Compound I-463] | 10 to 100 nM |
| CN1CCC[C@@H](Nc2nnc(-c3ccc(C(F)(F)F)cc3C3=CCOC3)c3ccncc23)C1 [Compound I-145] | 1 to 10 nM |
| Oc1cc(C(F)(F)F)ccc1-c1nnc(NC[C@@H]2CCCN2)c2cnccc12 [Compound I-111] | 1 to 10 nM |
| Cc1cc(C2CC2)ccc1-c1nnc(N[C@@H]2CCCN(C)C2)c2cnccc12 [Compound I-272] | 1 to 10 nM |
| COc1cc(C(F)(F)F)ccc1-c1nnc(N[C@@H]2CCCN(C)C2)c2cnccc12 [Compound I-119] | 1 to 10 nM |
| CN1CCC[C@@H](Nc2nnc(-c3cnc(C(F)(F)F)cc3O)c3ccccc23)C1 [Compound I-79] | 10 to 100 nM |
| Oc1cc(C(F)(F)F)ccc1-c1nnc(N[C@H]2CCOC2)n2cccc12 [Compound I-459] | 10 to 100 nM |

| SMILES | IC50 |
| --- | --- |
| Cc1cc2c(-c3ccc(C(F)(F)F)cc3OC(F)F)nnc(N[C@@H]3CCCN(C)C3)n2c1 [Compound I-591] | 1 to 10 nM |
| CN1CCC[C@@H](Nc2nnc(-c3c(F)ccc(C4CC4)c3O)c3ccncc23)C1 [Compound I-210] | 10 to 100 nM |
| Cc1cc(F)c(-c2nnc(N[C@@H]3C[C@@H](F)CN(C)C3)n3cccc23)c(OC(F)F)c1 [Compound I-462] | 10 to 100 nM |
| CN1CCC[C@@H](Nc2nnc(-c3ccc(C(F)(F)F)cc3O)c3occc23)C1 [Compound I-85] | 10 to 100 nM |
| CCN1CCC[C@@H](Nc2nnc(-c3ccc(OC(F)F)cc3OC(F)F)c3cccn23)C1 [Compound I-613] | 1 to 10 nM |
| Cc1cccc(O)c1-c1nnc(N[C@@H]2CCCN(C)C2)c2ccccc12 [Compound I-50] | < 1 nM |
| CN1CCC[C@@H](Nc2nnc(-c3ccc(C(F)(F)F)cc3O)c3sccc23)C1 [Compound I-4] | 1 to 10 nM |
| CN1CCC[C@@H](Nc2nnc(-c3ccc(C(F)(F)F)cc3-c3ccccc3)c3ccncc23)C1 [Compound I-202] | 10 to 100 nM |
| CC1CCCc2c(N[C@@H]3CCCNC3)nnc(-c3ccc(C(F)(F)F)cc3O)c21 (stereo partly drawn) [Compound I-23] | 10 to 100 nM |
| CCN1C[C@H](F)C[C@@H](Nc2nnc(-c3c(O)cc(Cl)cc3F)c3cccn23)C1 [Compound I-620] | 1 to 10 nM |
| Cc1cc2c(-c3ccc(C4CC4)cc3O)nnc(N[C@@H]3CCCN(C)C3)n2n1 [Compound I-327] | 1 to 10 nM |
| C#Cc1ccc(-c2nnc(N[C@@H]3CCCN(C)C3)c3ccccc23)c(O)c1 [Compound I-226, (R)-5-ethynyl-2-(4-((1-methylpiperidin-3-yl)amino)phthalazin-1-yl)phenol] | < 1 nM |
| CN1CCC[C@@H](Nc2nnc(-c3ccc(C4CC4)cc3C(F)F)c3cccn23)C1 [Compound I-446, 1-[4-Cyclopropyl-2-(difluoromethyl)phenyl]-N-[(3R)-1-methyl-3-piperidyl]pyrrolo-[1,2-d][1,2,4]triazin-4-amine] | 1 to 10 nM |
| CN1CCC[C@@H](Nc2nnc(-c3ccc(C(F)(F)F)cc3S(C)(=O)=O)c3ccncc23)C1 [Compound I-192] | 10 to 100 nM |
| Oc1cc(Cl)ccc1-c1nnc(N[C@@H]2CCCOC2)n2cccc12 [Compound I-402] | 10 to 100 nM |
| OCCN1CCC[C@@H](Nc2nnc(-c3ccc(OC(F)(F)F)cc3OC(F)F)c3cccn23)C1 [Compound I-520] | 1 to 10 nM |
| C[C@]1(O)C[C@@H](Nc2nnc(-c3ccc(C(F)(F)F)cc3O)c3c(F)ccn23)C1 [Compound I-593] | 1 to 10 nM |
| C[C@]1(O)C[C@@H](Nc2nnc(-c3ccc(C(F)(F)F)cc3O)c3cncn23)C1 [Compound I-527] | 1 to 10 nM |
| Cc1cccc(O)c1-c1nnc(N[C@@H]2CCCN(C)C2)c2cnccc12 [Compound I-105] | 1 to 10 nM |
| COC(C)(C)CNc1nnc(-c2ccc(C(F)(F)F)cc2OC(F)F)c2cccn12 [Compound I-568] | 1 to 10 nM |
| CC(C)N1CCC[C@@H](Nc2nnc(-c3ccc(C(F)(F)F)cc3O)c3c2CCCC3)C1 [Compound I-34] | < 1 nM |

| SMILES | IC50 |
| --- | --- |
| CN1CCC[C@@H](N(C)c2nnc(-c3ccc(C(F)(F)F)cc3O)c3c2CCCC3)C1 [Compound I-47, 2-[4-[Methyl-[(3R)-1-methyl-3-piperidyl]amino]-5,6,7,8-tetrahydrophthalazin-1-yl]-5-(trifluoromethyl)phenol] | < 1 nM |
| CCN1C[C@H](O)C[C@@H](Nc2nnc(-c3ccc(C(F)(F)F)cc3OC(F)F)c3c(F)ccn23)C1 [Compound I-603] | 100 to 300 nM |
| Cc1ccc(-c2nnc(N[C@@H]3CCCN(C)C3)c3ccccc23)c(F)c1F [Compound I-165] | 10 to 100 nM |
| CC(C)(O)CNc1nnc(-c2ccc(OC(F)(F)F)cc2O)c2cccn12 [Compound I-438] | 100 to 300 nM |
| Cc1cc2c(-c3ccc(C(F)(F)F)cc3O)nnc(N[C@@H]3CCCN(C)C3)n2n1 [Compound I-329, (R)-2-(2-methyl-7-((1-methylpiperidin-3-yl)amino)pyrazolo[1,5-d][1,2,4]triazin-4-yl)-5-(trifluoromethyl)phenol] | < 1 nM |
| OCCN1CCC[C@@H](Nc2nnc(-c3ccc(C(F)(F)F)cc3O)c3cnccc23)C1 [Compound I-101] | < 1 nM |
| CCOc1cc(O)c(-c2nnc(N[C@@H]3C[C@@H](F)CN(C)C3)n3cccc23)c(F)c1 [Compound I-631] | 10 to 100 nM |
| OCCN1CCC[C@@H](Nc2nnc(-c3ccc(C(F)(F)F)cc3O)c3ccccc23)C1 [Compound I-48, 2-[4-[[(3R)-1-(2-Hydroxyethyl)-3-piperidyl]amino]phthalazin-1-yl]-5-(trifluoromethyl)phenol] | < 1 nM |
| Oc1cc(C(F)(F)F)ccc1-c1nnc(N[C@@H]2CCCN(C3CCOCC3)C2)n2cccc12 [Compound I-343] | 1 to 10 nM |
| CN1CCC[C@@H](Nc2nnc(-c3c(F)cc(C(F)(F)F)cc3OC(F)F)c3cccn23)C1 [Compound I-487] | 1 to 10 nM |
| CN1CCC[C@@H](Nc2nnc(-c3ccc(C(F)(F)F)cc3OC(F)F)c3cc(C4CC4)nn23)C1 [Compound I-346] | 1 to 10 nM |
| COc1cc(Cl)ccc1-c1nnc(N[C@@H]2CCCN(C)C2)n2cncc12 [Compound I-383] | 1 to 10 nM |
| Cc1cccc(-c2nnc(N[C@@H]3CCCN(C)C3)c3cnccc23)c1OC(F)F [Compound I-168] | 10 to 100 nM |
| CN1CCC[C@@H](Nc2nnc(-c3ccc(C(F)(F)F)cc3O)c3c2CCC3(C)C)C1 [Compound I-46] | 10 to 100 nM |
| CN1CCC[C@@H](Nc2nnc(-c3ccc(OC(F)(F)F)cc3O)c3c(F)ccn23)C1 [Compound I-441] | 1 to 10 nM |
| COc1ccc(-c2nnc(N[C@@H]3CCCN(C)C3)c3cnccc23)c(C(F)F)c1 [Compound I-287] | 1 to 10 nM |
| Cc1nc(-c2ccc(-c3nnc(N[C@@H]4CCCNC4)c4ccccc34)c(O)c2)ns1 [Compound I-32] | 10 to 100 nM |
| Cc1ccc(-c2nnc(N[C@@H]3CCCN(C)C3)c3cnccc23)c(O)n1 [Compound I-78] | 10 to 100 nM |
| OCCN1CCC[C@@H](Nc2nnc(-c3ccc(C(F)(F)F)cc3OC(F)F)c3ccncc23)C1 [Compound I-206, 2-[(3R)-3-[[1-[2-(Difluoromethoxy)-4-(trifluoromethyl)phenyl]pyrido[3,4-d]pyridazin-4-yl]amino]-1-piperidyl]ethanol] | < 1 nM |
| CN1C[C@@H](F)C[C@H](Nc2nnc(-c3ccc(C(F)(F)F)cc3O)c3ccccc23)C1 [Compound I-164] | 10 to 100 nM |
| CC#Cc1ccc(-c2nnc(N[C@@H]3CCCN(C)C3)c3ccccc23)c(O)c1 [Compound I-227] | < 1 nM |
